From patent US20240065988A1, “COMBINED USE OF KETAMINE AND RETIGABINE (EZOGABINE) FOR THE TREATMENT OF PSYCHIATRIC DISORDERS” (Yeda Research and Development Co. Ltd., priority 2021, published 2024)

Columns and labels:
[1] = system: Kcnq2 mRNA in primary hippocampal neurons; experiment: Kcnq2 mRNA in primary hippocampal neurons stimulated with HNKet alone or plus nifedipine, W-7 or cyclosporine-A; assay type: cell-based, mouse
Method: (§1) Primary hippocampal neurons were generated from E16.5 embryos using a standard primary neuron cell culture protocol previously described [K. G. Schraut et al., Eur JNeurosci (2021) 53: 390-401]. Briefly, dissected hippocampi were harvested in ice-cold dissection medium (HBSS, 7 mM HEPES, 2 mM L-glutamine, 500 U/ml penicillin-streptomycin, all Thermo Fisher Scientific). The tissue was incubated for 10 minutes in 0.25% Trypsin-EDTA with 8 mM HEPES (Thermo Fisher Scientific) in a water bath at 37° C. Tissue was washed three times with serum medium (DMEM, 10% FBS, Thermo Fisher Scientific). The cells were dissociated by titration using glass Pasteur pipets 10 in serum medium and filtered with a 70 tm cell strainer (Corning). Cell culture plates were coated overnight with 0.05 mg/ml poly-D-lysine mol wt 70,000-150,000 (Sigma Aldrich) in 0.15 M borate buffer (pH=8.5). Cells were seeded in 24-well plates at a density of 5×10^4 cells in 1 ml growth medium (Neurobasal A medium, 1 x B27 supplement, 0.25×GlutaMAX, all Thermo Fisher Scientific) per well. All cultures were kept in a humidified incubator at 37° C. and 5% CO2. Growth medium was renewed after 7 days of culture. For all experiments, mature twenty-one-day old primary neuronal cultures were used.
Primary hippocampal neurons were generated from E16.5 embryos and cultured for 21 days, as described above (see Primary Cell Culture). For experiment 1 (FIGS. 3A-K), neurons were treated with a saline solution, (R,S)-ketamine (10 μM) (Ketaset, Zoetis, Germany) or (2R,6R)-HNKet (10 μM) (Sigma, Cat #SML1873-25MG) for 0, 2, 12, 24 or 48 hours and compared to untreated controls. For experiment 2 (FIGS. 6A-D), neurons were stimulated with either a saline solution, (2R,6R)-HNKet (10 μM), or a combination of (2R,6R)-HNKet (10 μM) plus nifedipine (10 μM) (Tocris Bioscience, Cat #1075), W-7 hydrochloride (10 μM) (Tocris, Cat #0369), or cyclosporine-A (1 μM) (Tocris, Cat #1101) for 30 minutes, 1, 2, or 6 hours, and compared to untreated controls. […]

[2] = system: KCNQ channel (KCNQ2/3, M-current); experiment: In vitro whole-cell voltage-clamp recording of M-current (IM) density in primary hippocampal neurons; assay type: cell-based, mouse; conditions: HNKet 10 μM, 24 hours vs saline
[3] = system: primary hippocampal neurons; experiment: qPCR mRNA expression in primary hippocampal neurons treated with ketamine or HNKet; assay type: cell-based, mouse; conditions: 10 μM
Method: as §1
Primary hippocampal neurons were generated from E16.5 embryos and cultured for 21 days, as described above (see Primary Cell Culture). For experiment 1 (FIGS. 3A-K), neurons were treated with a saline solution, (R,S)-ketamine (10 μM) (Ketaset, Zoetis, Germany) or (2R,6R)-HNKet (10 μM) (Sigma, Cat #SML1873-25MG) for 0, 2, 12, 24 or 48 hours and compared to untreated controls. For experiment 2 (FIGS. 6A-D), neurons were stimulated with either a saline solution, (2R,6R)-HNKet (10 μM), or a combination of (2R,6R)-HNKet (10 μM) plus nifedipine (10 μM) (Tocris Bioscience, Cat #1075), W-7 hydrochloride (10 μM) (Tocris, Cat #0369), or cyclosporine-A (1 μM) (Tocris, Cat #1101) for 30 minutes, 1, 2, or 6 hours, and compared to untreated controls.
Ketamine treatment regulates Kcnq2 in primary hippocampal neurons To corroborate the previous findings in glutamatergic neurons, it was next examined whether treatment of primary hippocampal neurons with either (R,S)-ketamine or its active metabolite, (2R,6R)-hydroxynorketamine (HNKet), could modify the mRNA expression of the 8 genes tested earlier in glutamatergic neurons. Mouse primary hippocampal neurons are mostly made up of glutamatergic neurons and therefore make a very good model system to further validate the previous in vivo findings. […]

[4] = system: Kcnq2 mRNA in glutamatergic neurons of the vHipp; experiment: qPCR mRNA levels in FACS-sorted glutamatergic neurons (Ai9+/tdTomato+) and remaining cells (Ai9-/tdTomato-) of Nex-Cre-Ai9 mice; assay type: in vivo, mouse; conditions: glutamatergic neurons (tdTomato+) of the vHipp, two days after treatment; ketamine 10, escitalopram 10, retigabine 1 mg/kg/BW
Source text: Conditional transgenic mice expressing tdTomato in glutamatergic neurons of the forebrain (Nex-Cre;Ai9) were generated by crossing homozygous Nex-Cre mice [described in S. Goebbels et al., Genesis (2006) 44: 611-621] with homozygous Ai9 mice [Gt(ROSA)26Sortm9(CAG-tdTomato)Hze] [described in L. Madisen et al., Nat Neurosci (2010) 13: 133-140].
In order to further investigate these findings, a conditional reporter mouse line (Nex-Cre-Ai9) was generated where most glutamatergic neurons of the forebrain, including the hippocampus, are fluorescently labeled by tdTomato (Ai9) except for neurons in the dentate gyrus where Neurod6, the promoter used to target glutamatergic neurons driving Cre expression, is not expressed (FIG. 12) [J. Hartmann et al., Mol Psychiatry (2017) 22: 466-475]. Following the same paradigm used in the original cohort, mice were group-housed and injected with (R,S)-ketamine (10 mg/kg BW) or a saline vehicle control. The vHipp of these mice was dissected […] later (i.e. 2 days). Single-cell suspensions were prepared and individual cells were sorted using fluorescence activated cell sorting (FACS) (FIG. 2A) into two separate pools of cells from each mouse. One pool contained glutamatergic neurons (Ai9+) and a second contained all remaining cell types of the vHipp (Ai9-) (FIG. 2A and FIGS. 13A-C). […] These two separate pools of cells were then used to validate the scRNA-seq findings in glutamatergic neurons at the population level using quantitative real-time polymerase chain reaction (qPCR).
Next, it was tested whether retigabine can produce similar synergistic effects in combination with traditional antidepressants.

mice (C57BL/6N) = experiment: Forced swim test (FST), pharmacological manipulation of KCNQ; assay type: in vivo, mouse; conditions: XE991 1 and 3 mg/kg BW in combination with saline (FIG. 23A)
Method: C57BL/6N and CD-1 (ICR) male mice aged 10 weeks old were used in these experiments. Ketamine hydrochloride (Ketaset, Zoetis, Germany) was diluted in 0.9% NaCl solution (saline) and administered i.p at 1, 5 or 10 mg/kg BW, depending on the experiment design. The KNCQ inhibitor, XE991 (Alomone labs; Cat #: X-100) was diluted in 5% DMSO and administered i.p at 1 or 3 mg/kg BW. The KCNQ activator, Retigabine (Alomone labs; Cat #: R-100), was diluted in 5% DMSO and administered i.p at 1 or 5 mg/kg BW. As control, mice were injected with a DMSO-saline solution (5% DMSO). For all experiments, mice were tested 30 minutes after injection in the FST or over a period of 36 hours after injection in the social boxes.
Previous studies in rodents have shown that KCNQ function can be regulated with highly-specific agonists and antagonists [V. Barrese et al., Annu Rev Pharmacol Toxicol (2018) 58: 625-648]. To further explore the KCNQ channel as a potential therapeutic target of ketamine, it was examined whether pharmacological inhibition of KCNQ alone or in combination with ketamine had any effects on behavior. To accomplish this, a new cohort of mice received two injections with a combination of drugs. […] To assess the effects of ketamine, XE991 (KCNQ inhibitor), and its combination, these mice were exposed to a FST (FIG. 7A, left). […] The inventors then sought to test whether the effects of ketamine could be mimicked, increased or amplified using retigabine, also known as ezogabine, a selective KCNQ (Kcnq2/3) channel activator. Similarly to the previous experiment, mice were treated with saline, (R,S)-ketamine (10 mg/kg BW), or ketamine in combination with two different concentrations of retigabine (1 and 5 mg/kg BW) (FIG. 7A, right).
Next, it was examined whether retigabine could increase the sustained antidepressant-like effects produced by a single injection of ketamine in mice. Accordingly, a new cohort of mice were treated with a single dose of saline, ketamine, or ketamine in combination with retigabine (1 mg/kg) and antidepressant-like behaviors were assessed using the FST, 5—and 7-days post-injection (FIG. 8A). […] Next, as a potential therapeutic strategy for major depressive disorder (MDD), the synergistic effects of ketamine and retigabine was further investigated by testing whether or not retigabine can increase the antidepressant-like effects produced by ketamine in mice. […] Next, it was tested whether retigabine can produce similar synergistic effects in combination with traditional antidepressants. […] Lastly, using a new cohort of Nex-Cre-Ai9 mice, it was tested whether the adjunctive treatment of ketamine with retigabine, or escitalopram alone, could modify the expression of Kcnq2 mRNA in FACS sorted cells from the vHipp (FIG. 8F).

Cl.NCCCCCCNS(=O)(=O)c1cccc2c(Cl)cccc12 [W-7, W-7 hydrochloride]
effect of inhibitor on the HNKet-induced upregulation of Kcnq2 mRNA ([1]; combined with HNKet 10 μM, nifedipine 10 μM, W-7 10 μM, cyclosporine-A 1 μM, 1, 2, 6 hours): eliminated the upregulation of Kcnq2

N[C@@]1(c2ccccc2Cl)CCC[C@@H](O)C1=O [HNKet, (2R,6R)-hydroxynorketamine]
IM current density [2]: significant increase in IM current density | mRNA expression of Hspa8, Snap25, Hsp90ab1, Ndufa4, Ilf2, E2f1 and Kcnq2 ([3]; 2, 12, 24 or 48 hours): significant changes | Kcnq2 mRNA expression ([3]; 2, 12, 24 or 48 hours vs untreated and saline controls): significant upregulation at all time points tested | Kcnq2 mRNA ([1]; 1, 2 and 6 hours of stimulation, HNKet 10 μM): significant upregulation of Kcnq2 mRNA | expression of Kcnq2 ([1]; 30 minutes of treatment, HNKet 10 μM): No significant differences

CN(C)CCC[C@@]1(c2ccc(F)cc2)OCc2cc(C#N)ccc21 [escitalopram]
Kcnq2 mRNA [4]: No significant changes

O=C1c2ccccc2C(Cc2ccncc2)(Cc2ccncc2)c2ccccc21 [XE991, 10,10-bis(4-pirinydilmethyl)-9(10H)−antracenone]
immobility time during the FST (mice (C57BL/6N)): No significant differences
